Laboratory results taken from patent US20090191173A1, “Induction Of Neurogenesis And Stem Cell Therapy In Combination With Copolymer 1” (priority 2004, published 2009).

How the values were obtained:
[1] = tested on: neural progenitor cells (NPCs); assay: Neurogenesis from NPCs co-cultured with microglia pre-activated by aggregated Aβ and cytokines; format: cell-based, mouse; details: 10 days; Aβ 5 μM 48 h, cytokines 10 ng/ml
Protocol: (xx) Reagents. Recombinant mouse IFN-γ and IL-4 (both containing endotoxin at a concentration below 0.1 ng/μg cytokine) were obtained from R&D Systems (Minneapolis, Minn.). β-amyloid peptides [amyloid protein fragment 1-40 and 1-42 (Aβ1-40/1-42)] were purchased from Sigma-Aldrich, St. Louis, Mo. The Aβ peptides were dissolved in endotoxin-free water, and Aβ aggregates were formed by incubation of Aβ, as described (Ishii et al., 2000). (xxv) Neural progenitor cell culture. Coronal sections (2 mm thick) of tissue containing the subventricular zone of the lateral ventricle were obtained from the brains of adult C57B1/6J mice. […] After centrifugation at 110×g for 15 min at room temperature, the tissue was mechanically dissociated by pipette trituration. Cells obtained from single-cell suspensions were plated (3500 cells/cm^2) in 75-cm^2 Falcon tissue-culture flasks (BD Biosciences, San Diego, Calif.), in NPC-culturing medium [Dulbecco's modified Eagles's medium (DMEM)/F12 medium (Gibco/Invitrogen, Carlsbad, Calif.) containing 2 mM L-glutamine, 0.6% glucose, 9.6 μg/ml putrescine, 6.3 ng/ml progesterone, 5.2 ng/ml sodium selenite, 0.02 mg/ml insulin, 0.1 mg/ml transferrin, 2 μg/ml heparin (all from Sigma-Aldrich, Rehovot, Israel), fibroblast growth factor-2 (human recombinant, 20 ng/ml), and epidermal growth factor (human recombinant, 20 ng/ml; both from Peprotech, Rocky Hill, N.J.)]. Spheres were passaged every 4-6 days and replated as single cells. Green fluorescent protein (GFP)-expressing NPCs were obtained as previously described (Pluchino et al., 2003). (xxvi) Primary microglial culture. Brains from neonatal (P0-P1) C57B1/6J mice were stripped of their meninges and minced with scissors under a dissecting microscope (Zeiss, Stemi DV4, Germany) in Leibovitz-15 medium (Biological Industries, Kibbutz Beit Ha-Emek, Israel). […] The cell suspension was washed in culture medium for glial cells [DMEM supplemented with 10% fetal calf serum (FCS; Sigma-Aldrich, Rehovot), L-glutamine (1 mM), sodium pyruvate (1 mM), penicillin (100 U/ml), and streptomycin ([…])] and cultured at 37° C./5% CO2 in 75-cm^2 Falcon tissue-culture flasks (BD Biosciences) coated with poly-D-lysine (PDL) (10 mg/ml; Sigma-Aldrich, Rehovot) in borate buffer (2.37 g borax and 1.55 g boric acid dissolved in 500 ml sterile water, pH 8.4) for 1 h, then rinsed thoroughly with sterile, glass-distilled water. Half of the medium was changed after 6 h in culture and every 2nd day thereafter, starting on day 2, for a total culture time of 10-14 days. […]

microglia = assay: TNF-α and IGF-I expression in treated microglia (RT-PCR, immunocytochemistry); format: cell-based, mouse; details: IFN-γ 20 ng/ml
Text: (vi) Immunocytochemistry. Cover slips from co-cultures of NPCs and mouse microglia were washed with PBS, fixed as described above, treated with a permeabilization/blocking solution containing 10% FCS, 2% bovine serum albumin, 1% glycine, and 0.1% Triton X-100 (Sigma-Aldrich, Rehovot) and stained with a combination of the mouse or rabbit anti-tubulin β-III-isoform C-terminus antibodies (β-III-tubulin; 1:500), rabbit anti-NG2 chondroitin sulfate proteoglycan (NG2; 1:500), mouse anti-RIP (RIP; 1:2000), mouse anti-galactocerebroside (GalC; 1:250), mouse anti-glutamic acid decarboxylase 67 (GAD; 1:1000), mouse anti-nestin (Nestin; 1:1000), rat anti-myelin basic protein (MBP; 1:300) (all from Chemicon, Temecula, Calif.), goat anti-double cortin (DCX; 1:400, Santa Cruz Biotechnology, Santa Cruz, Calif.) and mouse anti-glial fibrillary acidic protein (GFAP; 1:100, Sigma-Aldrich, St. Louis). […] Expression of IGF-1 was detected by goat anti-IGF-1 (1:20, R&D Systems). […]
We assayed the expression of specific mRNAs using semi-quantitative reverse transcription PCR (RT-PCR) with selected gene-specific primer pairs, using OLIGO v6.4 (Molecular Biology Insights, Cascade, Colo.).
The RT-PCR reactions were carried out using 1 μg of cDNA, […] of each primer, and ReadyMix PCR Master Mix (ABgene, Epsom, UK) in 30-μl reactions. […] Signals were quantified using a Gel-Pro analyzer 3.1 (Media Cybernetics).

IFN-γ: recombinant interferon-γ
neurogenesis (GFP+/βIIIT+ cells) from NPCs co-cultured with treated microglia [1]: increase in numbers of GFP^+/βIIIT^+ cells was dramatic
IGF-I mRNA in microglia as a function of time (microglia): down-regulation of IGF-I
TNF-α production by microglia as a function of time (microglia): transient increase in TNF-α production
